Reference: US20230130766A1 (SALK INSTITUTE FOR BIOLOGICAL STUDIES, priority 2020, published 2023)

Columns and labels:
ULK1 = molecular target: T1, ULK1 (Homo sapiens, UniProt O75385); experiment: ULK1 inhibition assay; format: biochemical; settings: * = tested as a mixture of regioisomers
T1 sequence (O75385 1-1050): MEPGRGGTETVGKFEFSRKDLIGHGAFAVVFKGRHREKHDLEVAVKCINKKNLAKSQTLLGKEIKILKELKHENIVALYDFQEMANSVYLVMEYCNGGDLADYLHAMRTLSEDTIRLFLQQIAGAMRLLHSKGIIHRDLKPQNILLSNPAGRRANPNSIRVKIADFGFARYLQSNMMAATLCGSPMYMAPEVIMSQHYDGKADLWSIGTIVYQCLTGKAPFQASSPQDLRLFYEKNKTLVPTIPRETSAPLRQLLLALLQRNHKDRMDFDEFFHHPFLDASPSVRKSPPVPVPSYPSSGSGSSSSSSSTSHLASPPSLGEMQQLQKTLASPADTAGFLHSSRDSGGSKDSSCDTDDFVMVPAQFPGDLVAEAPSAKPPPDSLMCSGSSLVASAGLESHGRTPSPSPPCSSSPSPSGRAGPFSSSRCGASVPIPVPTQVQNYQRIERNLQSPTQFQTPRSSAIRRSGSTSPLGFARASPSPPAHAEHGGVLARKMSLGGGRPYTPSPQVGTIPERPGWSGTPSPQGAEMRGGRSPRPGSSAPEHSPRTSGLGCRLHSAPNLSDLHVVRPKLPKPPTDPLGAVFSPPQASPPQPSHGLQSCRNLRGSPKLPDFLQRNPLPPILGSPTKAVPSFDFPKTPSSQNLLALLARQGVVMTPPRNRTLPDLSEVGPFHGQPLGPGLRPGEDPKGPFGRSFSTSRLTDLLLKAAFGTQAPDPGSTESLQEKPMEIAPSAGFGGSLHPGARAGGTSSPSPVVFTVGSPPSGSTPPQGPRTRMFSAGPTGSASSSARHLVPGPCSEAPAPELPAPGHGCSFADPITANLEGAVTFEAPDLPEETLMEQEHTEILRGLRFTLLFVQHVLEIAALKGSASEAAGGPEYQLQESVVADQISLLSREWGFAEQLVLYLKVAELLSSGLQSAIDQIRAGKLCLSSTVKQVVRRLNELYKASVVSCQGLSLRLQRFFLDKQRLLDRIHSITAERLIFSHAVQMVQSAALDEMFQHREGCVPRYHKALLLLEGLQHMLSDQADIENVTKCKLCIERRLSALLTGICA

MDA-MB-468 cells = experiment: CellTiter-Glo cell viability dose-response matrix, synergy by Combenefit (Loewe model); format: cell-based; settings: 72 h; for concentrations at which significant synergy was observed: combination of Compound 349 and olaparib
Procedure: Different concentrations of Compound 349 with olaparib (FIG. 13A) were tested to measure the combined effect of inhibiting both ULK1/2 and PARP. For these experiments, MDA-MB-468 cells were treated with Compound 349 (0-15 μM) and olaparib (0-15 μM) in a dose-response matrix for 72 h, and cell viability was assessed by a CellTiter-Glo assay, and the synergistic effect was analyzed with Combenefit using the Loewe model.

[1] = tested on: MDA-MB-468 cells expressing mCherry-EGFP-LC3; experiment: Autophagic flux by flow cytometry; format: cell-based; settings: 48 h
Procedure: To investigate the mechanism by which Compound 349 potentiates the cytotoxic effects of PARP inhibitors, MDA-MB-468 cells expressing mCherry-EGFP-LC3 were treated with olaparib (30 μM) and/or Compound 349 (10 μM) for 48 h and then quantified for autophagic flux. For these experiments, MDA-MB-468 cells stably expressing the mCherry-GFP-LC3 fusion protein were plated in 6-well plates at a density of 6×10^5 cells/well in growth media DMEM/F12+GlutaMAX-1 (Gibco) supplemented with 10% FBS (Gibco) and 1× Anti-Anti (Gibco) and allowed to grow overnight. Cells were treated, trypsinized, and then resuspended in PBS, and analytical cytometry was performed using an LSRFortessa 14-color (BD Biosciences) with a 488 nm and […] laser. For flow cytometry, wild type MDA-MB-468 cells were used as the unstained control, and MDA-MB-468 cells expressing either mCherry or GFP were used for comparison. Events of 10,000 were collected for each sample.

A549 cells [2] = experiment: A549 xenografts, ULK inhibitor alone and in combination with carboplatin; format: in vivo, nude mice
Procedure: A549 cells (5M cells) were injected bilaterally into the flanks of thirty-six nude mice to create tumor xenografts in order to assess the efficacy of Compound 14 in treating non-small cell lung cancer tumors both alone and in combination with carboplatin, the current standard of care therapy for non-small cell lung cancer. After 11 days of letting tumor cells proliferate (at which point tumors were ˜50 mm^3 in volume), administration of carboplatin, Compound 14, or combinations began. One cohort of six mice received 20 mg/kg twice daily doses of Compound 14 alone, one cohort of six mice received 30 mg/kg twice daily doses of Compound 14 alone, one cohort of six mice received 25 mg/kg doses of carboplatin every three days, one cohort of six mice received 20 mg/kg twice daily doses of Compound 14 in conjunction with 25 mg/kg doses of carboplatin every three days, one cohort of six mice received 30 mg/kg twice daily doses of Compound 14 in conjunction with 25 mg/kg doses of carboplatin every three days, and the remaining six mice were treated with vehicle. Treatment and monitoring was continued until day 53 post inoculation of tumor cells (42 days of treatment).

A549 cells [3] = experiment: A549 xenograft large tumors, ULK inhibitor alone versus carboplatin; format: in vivo, nude mice; settings: A549 large tumors (over 200 mm^3 at start); carboplatin 25 mg/kg every three days; day 72
Procedure: A549 cells (5M cells) were injected bilaterally into the flanks of forty-six nude mice to create tumor xenografts in order to assess the efficacy of Compound 14 in treating larger non-small cell lung cancer tumors compared to carboplatin, the current standard of care therapy for non-small cell lung cancer. After 40 days of letting tumor cells proliferate (at which point tumors were over 200 mm^3 in volume), administration of carboplatin or Compound 14 was initiated. One cohort of twelve mice received 20 mg/kg twice daily doses of Compound 14, one cohort of ten mice received 30 mg/kg twice daily doses of Compound 14, one cohort of seven mice received 25 mg/kg doses of carboplatin every three days, one cohort of seven mice received 40 mg/kg once daily doses of Compound 14, and the remaining ten mice were treated with vehicle. Treatment and monitoring was continued until day 72 post inoculation of tumor cells (32 days of treatment).

MIA PaCa-2 cells = experiment: MIA PaCa-2 xenografts, ULK inhibitor alone versus gemcitabine; format: in vivo, nude mice; settings: day 42, Compound 14 20 mg/kg twice daily, gemcitabine dose not given
Procedure: MIA PaCa-2 cells were injected bilaterally into the flanks of nude mice to create tumor xenografts in order to assess the efficacy of Compound 14 in treating pancreatic cancer tumors compared to gemcitabine, a current standard of care therapy for pancreatic cancer. After 3 days of letting tumor cells proliferate (at which point tumors were ˜100 mm^3 in volume), administration of gemcitabine or Compound 14 was initiated. One cohort received 20 mg/kg twice daily doses of Compound 14, one cohort received gemcitabine, and the remaining cohort was treated with vehicle. Treatment and monitoring were continued until day 42 post inoculation of tumor cells (30 days of treatment).

COc1ccc(Nc2ncc(C(F)(F)F)c(NC3CC3)n2)cc1OC [Compound 349]
IC50 (ULK1): < 200 nM | antiproliferative synergy (MDA-MB-468 cells; Compound 349 (0-15 μM) with olaparib (0-15 μM)): strong antiproliferative synergy | maximum synergy score (MDA-MB-468 cells; Compound 349 (0-15 μM) with olaparib (0-15 μM), Loewe model): 34 | concentrations at which significant synergy was observed (MDA-MB-468 cells): 0.021 to 15 µM | olaparib-induced increase in autophagic flux ([1]; Compound 349 10 μM concomitant with olaparib 30 μM): significantly suppressed the olaparib-induced increase in autophagic flux to a level similar to that observed in untreated control cells

COc1cc(Nc2ncc(Br)c(Oc3ccccc3[S+](C)[O-])n2)cc(OC)c1OC (centres unmarked) [Compound 356]
IC50 (ULK1): > 2000 nM

O=C1CCc2cc(Nc3ncc(C(F)(F)F)c(OCCN4CCOC4=O)n3)ccc2N1 [Compound 357]
IC50 (ULK1): 200 to 2000 nM

Nc1nc(N(C(=O)C2CC2)c2ccc3c(c2)CCC(=O)N3)ncc1C(F)(F)F [Compound 358]
IC50 (ULK1): > 2000 nM

N.N.O=C([O-])C1(C(=O)[O-])CCC1.[Pt+2] [carboplatin, reference compound]
final tumor average volume (A549 cells [2]; carboplatin 25 mg/kg every three days alone, day 53): ~200 mm^3 | tumor growth compared to the control (A549 cells [2]; monotherapy: carboplatin 25 mg/kg every three days, Compound 14 20 mg/kg twice daily): markedly reduced growth compared to the control | tumor volume by the end of the study (A549 cells [3]): above 500 mm^3

Nc1ccn([C@@H]2O[C@H](CO)[C@@H](O)C2(F)F)c(=O)n1 [gemcitabine, reference compound]
final tumor volume (MIA PaCa-2 cells): ~800 mm^3

O=C(c1cc(Cc2n[nH]c(=O)c3ccccc23)ccc1F)N1CCN(C(=O)C2CC2)CC1 [olaparib, reference compound]
concentrations at which significant synergy was observed (MDA-MB-468 cells): 3.8 to 15 µM | increase in autophagic flux compared with control cells ([1]; olaparib 30 μM alone): approximately 30%
